These are literature values, as cited in patent US12128121B2, “Compositions comprising organo-silanol compounds, and applications” (EXSYMOL, priority 2020, dated 2024).

Each structure is given as a SMILES string. Read-outs that look alike come from different tables or passages of the source.

`C[Si](O)(O)O` [CH3—Si(OH)3, monomethylsilanetriol]: the concentration in water (as silicon, CH3—Si(OH)3) is roughly 588 mg Si/I and the concentration in water (limit before self-condensation) is on record as roughly 21 mM.
